The assay deals with hMAT2A (Homo sapiens, UniProt P31153). As to the kind of experiment: RP-HPLC of AdoMet product formation. The class given is biochemical. Conditions: read-out: Km μmol L^-1; saturating ATP 2 mM; 25 mM Tris pH 8.0, 10 mM MgCl2, 50 mM KCl; 37 °C; text prints error ± 27.
hMAT2A, sequence (P31153 whole entry): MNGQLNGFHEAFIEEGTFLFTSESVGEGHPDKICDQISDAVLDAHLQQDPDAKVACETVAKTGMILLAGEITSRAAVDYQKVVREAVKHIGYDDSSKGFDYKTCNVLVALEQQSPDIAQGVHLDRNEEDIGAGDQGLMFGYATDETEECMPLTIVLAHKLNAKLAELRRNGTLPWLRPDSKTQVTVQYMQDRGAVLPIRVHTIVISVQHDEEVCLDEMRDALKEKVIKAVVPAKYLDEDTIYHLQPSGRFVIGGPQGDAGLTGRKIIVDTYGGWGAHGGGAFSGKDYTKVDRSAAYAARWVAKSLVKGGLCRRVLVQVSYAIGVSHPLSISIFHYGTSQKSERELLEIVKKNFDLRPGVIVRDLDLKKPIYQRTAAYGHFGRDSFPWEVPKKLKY

Consider `CSCC[C@H](N)C(=O)O` [LMet], for which the Km (in general, the concentration of substrate that gives half-maximal velocity) was determined as 397 ± 29 µM.

(Values after PMC5026608 (ACS chemical biology, 2016).)
